From article PMC6891475, “Synthesis and Antiproliferative Evaluation of Novel Hybrids of Dehydroabietic Acid Bearing 1,2,3-Triazole Moiety” (Molecules, 2019)

What was measured:
[1] = test system: human nasopharyngeal carcinoma cell (CNE-2); experiment: MTT antiproliferative assay, CNE-2; format: cell-based
Method: (§1) The antiproliferative activities of the 16 library members were tested against four human cancer cell lines including human nasopharyngeal carcinoma cell (CNE-2), human liver cancer cell (HepG2), human hepatocellular carcinoma cell (BEL-7402), human cervical cancer cells (HeLa), and human normal liver cell (HL-7702) using MTT assay according the reported literature method.
(§2) All the compounds (3a–p) were evaluated for their in vitro cytotoxicity against the following human cancer cell lines including CNE-2, HepG2, BEL-7402, Hela and normal liver cell HL-7702 by MTT assay. The cell lines were plated in 96-well plates at density of 5×10^3 cells/well and maintained at 37 °C with 5% CO2. The target compounds 3a–p dissolved in DMSO and further dilutions were made with DMEM, with cisplatin as the positive control. The concentration of the compounds used were 0.8, 4, 20, 100 μM. After the treatment of another 48 h and 72 h with different concentration of the samples (0.8, 4, 20, 100 μM), Therewith, 20 μL of MTT (5 mg/mL) was added and incubated for about 4 h. The medium was thrown away and the purple formazan precipitations were dissolved in 150 μL DMSO. The O. D. Value was measured at 490 nm in an enzyme labeling instrument.

[2] = test system: human liver cancer cell (HepG2); experiment: MTT antiproliferative assay, HepG2; format: cell-based
Method: as §1, §2

[3] = test system: human hepatocellular carcinoma cell (BEL-7402); experiment: MTT antiproliferative assay, BEL-7402; format: cell-based
Method: as §1, §2

[4] = test system: human cervical cancer cells (HeLa); experiment: MTT antiproliferative assay, HeLa; format: cell-based; details: mean ± SD from three independent experiments
Method: as §1, §2

[5] = test system: human normal liver cell (HL-7702); experiment: MTT cytotoxicity assay, HL-7702 normal cells; format: cell-based; details: for IC50: mean ± SD from three independent experiments; for cytotoxicity on the human normal liver cell (HL-7702), in words: qualitative statement
Method: as §1, §2

[6] = Homo sapiens, CNE-2, mean ± SD from three independent experiments
[7] = Homo sapiens, HepG2, mean ± SD from three independent experiments
[8] = Homo sapiens, Bel-7402, mean ± SD from three independent experiments
[9] = Homo sapiens, L02, normal liver cell
[10] = mean ± SD from three independent experiments

Row | IC50 [1, 6] [µM] | IC50 [2, 7] [µM] | IC50 [3, 8] [µM] | IC50 ([4]; Homo sapiens) [µM] | melting point [°C] | SMILES | IC50 [5, 9] [µM] | cytotoxicity on the human normal liver cell (HL-7702), in words [5] | IC50 [1, 10] [µM] | IC50 [2, 10] [µM] | IC50 [3, 10] [µM] | IC50 [4] [µM] | IC50 ([5]; normal liver cell) [µM]
1 | 10.9 ± 0.21 | 5.9 ± 0.41 | 16.72 ± 0.06 | 20.1 ± 0.54 | 175.7 to 178.3 | CC(C)c1ccc2c(c1)CCC1[C@](C)(C(=O)OCc3cn(Cc4cccc(F)c4)nn3)CCC[C@]21C (stereo partly shown) [Compound 3c, [1-(3-fluorobenzyl)-1H-1,2,3-triazole-4-yl]dehydroabietic acid methyl ester] | > 100 | lower cytotoxicity | – | – | – | – | –
2 | 44.14 ± 0.22 | 40.7 ± 0.62 | 36.88 ± 0.23 | 56.08 ± 0.36 | 146.1 to 148 | CC(C)c1ccc2c(c1)CCC1[C@](C)(C(=O)OCc3cn(Cc4cccc(Br)c4)nn3)CCC[C@]21C (stereo partly shown) [Compound 3i, [1-(3-bromobenzyl)-1H-1,2,3-triazole-4-yl]dehydroabietic acid methyl ester] | > 100 | – | – | – | – | – | –
3 | 11.5 ± 0.18 | 15.8 ± 0.64 | 15.4 ± 0.51 | 67.37 ± 0.33 | 128.5 to 132.3 | CC(C)c1ccc2c(c1)CCC1[C@](C)(C(=O)OCc3cn(Cc4cccc([N+](=O)[O-])c4)nn3)CCC[C@]21C (stereo partly shown) [Compound 3l, [1-(3-nitrobenzyl)-1H-1,2,3-triazole-4-yl]dehydroabietic acid methyl ester] | > 100 | – | – | – | – | – | –
4 | 48.3 ± 0.27 | 35.42 ± 0.21 | 27.3 ± 0.36 | 25.9 ± 0.2 | 95.1 to 97.3 | CC(C)c1ccc2c(c1)CCC1[C@](C)(C(=O)OCc3cn(Cc4ccccc4Br)nn3)CCC[C@]21C (stereo partly shown) [Compound 3h, [1-(2-bromobenzyl)-1H-1,2,3-triazole-4-yl]dehydroabietic acid methyl ester] | > 100 | – | – | – | – | – | –
5 | – | 80.4 ± 0.84 | – | 37.4 ± 0.64 | – | CC(C)c1ccc2c(c1)CC[C@H]1[C@](C)(C(=O)O)CCC[C@]21C [DHAA, dehydroabietic acid] | > 100 | – | – | – | – | – | –
6 | 80.98 ± 0.78 | > 100 | 25.03 ± 0.22 | 24.66 ± 0.16 | 106.5 to 108 | COc1cccc(Cn2cc(COC(=O)[C@]3(C)CCC[C@]4(C)c5ccc(C(C)C)cc5CCC34)nn2)c1 (stereo partly shown) [Compound 3p, [1-(3-methoxybenzyl)-1H-1,2,3-triazole-4-yl]dehydroabietic acid methyl ester] | > 100 | – | – | – | – | – | –
7 | 59.03 ± 0.28 | 22.3 ± 0.35 | 26.09 ± 0.15 | 53.78 ± 0.32 | 153.2 to 155.5 | CC(C)c1ccc2c(c1)CCC1[C@](C)(C(=O)OCc3cn(Cc4cccc(Cl)c4)nn3)CCC[C@]21C (stereo partly shown) [Compound 3f, [1-(3-chlorobenzyl)-1H-1,2,3-triazole-4-yl]dehydroabietic acid methyl ester] | > 100 | – | – | – | – | – | –
8 | 19.6 ± 0.38 | > 100 | 22.81 ± 0.22 | 22.5 ± 0.35 | 173.9 to 176.7 | CC(C)c1ccc2c(c1)CCC1[C@](C)(C(=O)OCc3cn(Cc4ccc([N+](=O)[O-])cc4)nn3)CCC[C@]21C (stereo partly shown) [Compound 3m, [1-(4-nitrobenzyl)-1H-1,2,3-triazole-4-yl]dehydroabietic acid methyl ester] | > 100 | – | – | – | – | – | –
9 | > 100 | 23.4 ± 0.32 | 14.5 ± 0.62 | 43.18 ± 0.22 | 172.5 to 174 | CC(C)c1ccc2c(c1)CCC1[C@](C)(C(=O)OCc3cn(Cc4ccc(Br)cc4)nn3)CCC[C@]21C (stereo partly shown) [Compound 3j, [1-(4-bromobenzyl)-1H-1,2,3-triazole-4-yl]dehydroabietic acid methyl ester] | > 100 | – | – | – | – | – | –
10 | 33.4 ± 0.33 | > 100 | 36.4 ± 70 | 67.88 ± 0.56 | 181 to 183.4 | CC(C)c1ccc2c(c1)CCC1[C@](C)(C(=O)OCc3cn(Cc4ccccc4)nn3)CCC[C@]21C (stereo partly shown) [Compound 3a, (1-benzyl-1H-1,2,3-triazole-4-yl)dehydroabietic acid methyl ester] | > 100 | – | – | – | – | – | –
11 | 21.4 ± 0.52 | 25.9 ± 0.27 | 18.6 ± 0.82 | 17.8 ± 0.31 | 122.4 to 125.8 | CC(C)c1ccc2c(c1)CCC1[C@](C)(C(=O)OCc3cn(Cc4ccccc4F)nn3)CCC[C@]21C (stereo partly shown) [Compound 3b, [1-(2-fluorobenzyl)-1H-1,2,3-triazole-4-yl]dehydroabietic acid methyl ester] | > 100 | – | – | – | – | – | –
12 | 12.2 ± 0.33 | 20.6 ± 0.09 | 14.8 | 22.3 ± 0.35 | 183 to 186.3 | CC(C)c1ccc2c(c1)CCC1[C@](C)(C(=O)OCc3cn(Cc4ccc(F)cc4)nn3)CCC[C@]21C (stereo partly shown) [Compound 3d, [1-(4-fluorobenzyl)-1H-1,2,3-triazole-4-yl]dehydroabietic acid methyl ester] | > 100 | – | – | – | – | – | –
13 | > 100 | 51.78 ± 0.43 | 41.9 ± 0.72 | 42.51 ± 0.37 | 160.4 to 162 | Cc1ccc(Cn2cc(COC(=O)[C@]3(C)CCC[C@]4(C)c5ccc(C(C)C)cc5CCC34)nn2)cc1 (stereo partly shown) [Compound 3o, [1-(4-methylbenzyl)-1H-1,2,3-triazole-4-yl]dehydroabietic acid methyl ester] | > 100 | – | – | – | – | – | –
14 | – | – | – | – | – | N.N.[Cl][Pt][Cl] [Cisplatin, cisplatin, reference compound] | – | – | 8.75 ± 0.24 | 6.42 ± 0.18 | 12.7 ± 0.33 | 1.94 ± 0.2 | 20.8 ± 0.83
15 | > 100 | 60.18 ± 0.39 | 23.6 ± 0.44 | 25.3 ± 0.81 | 130.7 to 132.8 | Cc1cccc(Cn2cc(COC(=O)[C@]3(C)CCC[C@]4(C)c5ccc(C(C)C)cc5CCC34)nn2)c1 (stereo partly shown) [Compound 3n, [1-(3-methylbenzyl)-1H-1,2,3-triazole-4-yl]dehydroabietic acid methyl ester] | > 100 | – | – | – | – | – | –
16 | 74.88 ± 0.14 | 45.08 ± 0.33 | 25.1 ± 0.32 | 44.28 ± 0.43 | 80.6 to 84.3 | CC(C)c1ccc2c(c1)CCC1[C@](C)(C(=O)OCc3cn(Cc4ccccc4Cl)nn3)CCC[C@]21C (stereo partly shown) [Compound 3e, [1-(2-chlorobenzyl)-1H-1,2,3-triazole-4-yl]dehydroabietic acid methyl ester] | > 100 | – | – | – | – | – | –
17 | 60.7 ± 66 | > 100 | 38 ± 0.48 | > 100 | 176.9 to 179.2 | CC(C)c1ccc2c(c1)CCC1[C@](C)(C(=O)OCc3cn(Cc4ccc(Cl)cc4)nn3)CCC[C@]21C (stereo partly shown) [Compound 3g, [1-(4-chlorobenzyl)-1H-1,2,3-triazole-4-yl]dehydroabietic acid methyl ester] | > 100 | – | – | – | – | – | –
18 | 44.9 ± 0.32 | 6.25 ± 0.37 | 18.6 ± 0.26 | > 100 | 119.7 to 122.2 | CC(C)c1ccc2c(c1)CCC1[C@](C)(C(=O)OCc3cn(Cc4ccccc4[N+](=O)[O-])nn3)CCC[C@]21C (stereo partly shown) [Compound 3k, [1-(2-nitrobenzyl)-1H-1,2,3-triazole-4-yl]dehydroabietic acid methyl ester] | > 100 | lower cytotoxicity | – | – | – | – | –
